This is an account of results in PMC6881293, “Nanomolar-potency ‘co-potentiator’ therapy for cystic fibrosis caused by a defined subset of minimal function CFTR mutants” (Scientific Reports, 2019).

In one test the target is T1, Q1313X-CFTR (Homo sapiens, UniProt P13569).
T1 construct: expressed in transfected cells
Kind of test: Short-circuit current in FRT cells expressing Q1313X-CFTR. In kind it is cell-based. As for the experimental part: As shown in Fig. 1C and summarized in Fig. 2, ASP-11 acted in synergy with VX-770 to increase chloride current in FRT cells expressing the NBD2 mutations I1234del- and Q1313X-CFTR by ~3–9-fold compared to VX-770. I1234del- and Q1313X-CFTR-expressing cells were also treated with VX-809 for 24 hours (to consider the effect of available CFTR therapeutics) with 2–3-fold greater currents observed.
Studies on FRT cells expressing Q1313X-CFTR produced similar data (Fig. 3C).
(§1) Figures 5C,D show data in N1303K- and Q1313X-expressing FRT cells.
(§2) Short-circuit current was measured on cells cultured on Snapwell clear permeable supports (Corning) as described[10],[11]. Hemichambers were connected to a DVC-1000 voltage clamp (World Precision Instruments Inc., Sarasota, FL) via Ag/AgCl electrodes and 3 M KCl agar bridges for recording of the short-circuit current. For human airway epithelial cells, symmetrical HCO3^−-buffered solutions (in mM: 120 NaCl, 5 KCl, 1 MgCl2, 1 CaCl2, 5 Hepes, 25 NaHCO3, 10 glucose, pH 7.4) for basolateral and apical side were used. For FRT cells, the basolateral membrane was permeabilized with 250 μg/ml amphotericin B, and experiments were done with a chloride gradient using a HCO3^−-buffered solutions (Basolateral (mM): 120 NaCl, 5 KCl, 1 MgCl2, 1 CaCl2, 5 Hepes, 25 NaHCO3, 10 glucose, pH 7.4; apical (mM): 60 NaCl, 60 mM sodium gluconate, 5 KCl, 1 MgCl2, 1 CaCl2, 5 Hepes, 25 NaHCO3, 10 glucose, pH 7.4). All cells were equilibrated with 95% O2, 5% CO2 and maintained at 37 °C during experiments.

A further test deals with T2, N1303K-CFTR (Homo sapiens, UniProt P13569, N1303K).
T2 construct: expressed in transfected cells
T2 sequence (P13569 whole entry N1303K): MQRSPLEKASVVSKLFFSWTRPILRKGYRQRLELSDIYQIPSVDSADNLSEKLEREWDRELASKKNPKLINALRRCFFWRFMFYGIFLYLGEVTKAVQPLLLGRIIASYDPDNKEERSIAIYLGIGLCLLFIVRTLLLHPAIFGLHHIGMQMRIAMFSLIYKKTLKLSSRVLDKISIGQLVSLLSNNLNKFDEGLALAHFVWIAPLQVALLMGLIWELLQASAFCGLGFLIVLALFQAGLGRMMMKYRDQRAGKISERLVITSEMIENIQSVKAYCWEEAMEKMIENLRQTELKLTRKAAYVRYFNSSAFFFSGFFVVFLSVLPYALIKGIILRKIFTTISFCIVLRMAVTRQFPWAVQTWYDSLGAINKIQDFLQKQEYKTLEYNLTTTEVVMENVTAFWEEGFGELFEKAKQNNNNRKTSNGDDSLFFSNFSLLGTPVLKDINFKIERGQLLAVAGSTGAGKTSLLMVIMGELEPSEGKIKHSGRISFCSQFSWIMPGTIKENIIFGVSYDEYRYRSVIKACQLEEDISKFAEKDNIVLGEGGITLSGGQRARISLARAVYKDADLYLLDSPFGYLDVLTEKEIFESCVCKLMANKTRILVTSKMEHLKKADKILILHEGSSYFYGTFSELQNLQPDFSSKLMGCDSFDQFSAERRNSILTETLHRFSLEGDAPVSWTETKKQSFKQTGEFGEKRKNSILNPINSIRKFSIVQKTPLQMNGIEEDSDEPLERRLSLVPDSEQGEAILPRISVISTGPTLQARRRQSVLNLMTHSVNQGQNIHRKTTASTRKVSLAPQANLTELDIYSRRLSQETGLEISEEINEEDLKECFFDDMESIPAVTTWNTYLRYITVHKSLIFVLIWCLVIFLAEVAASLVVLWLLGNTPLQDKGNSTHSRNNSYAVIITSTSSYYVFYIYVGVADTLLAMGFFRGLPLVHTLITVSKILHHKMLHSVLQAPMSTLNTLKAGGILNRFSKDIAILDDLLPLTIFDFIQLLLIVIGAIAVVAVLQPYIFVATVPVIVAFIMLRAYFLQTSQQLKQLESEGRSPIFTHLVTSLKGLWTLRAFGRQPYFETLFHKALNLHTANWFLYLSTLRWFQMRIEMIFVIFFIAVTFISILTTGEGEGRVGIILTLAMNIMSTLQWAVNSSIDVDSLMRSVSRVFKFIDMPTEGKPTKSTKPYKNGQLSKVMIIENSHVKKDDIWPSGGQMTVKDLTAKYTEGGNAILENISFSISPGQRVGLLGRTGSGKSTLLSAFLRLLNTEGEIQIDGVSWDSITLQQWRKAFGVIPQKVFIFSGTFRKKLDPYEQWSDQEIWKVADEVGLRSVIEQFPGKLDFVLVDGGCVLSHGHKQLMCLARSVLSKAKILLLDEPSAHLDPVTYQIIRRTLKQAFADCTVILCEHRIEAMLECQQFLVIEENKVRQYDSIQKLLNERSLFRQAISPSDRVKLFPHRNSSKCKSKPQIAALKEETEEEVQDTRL
Briefly: Short-circuit current in FRT cells expressing N1303K-CFTR. Type of test: cell-based. The protocol:
Based on prior studies[10],[11],[20], we hypothesized that distinct binding sites may be required to bind a potentiator and co-potentiator to rescue channel activity of CFTR mutants. We defined the potentiator VX-770 as a Class I compound, and co-potentiator ASP-11 as a Class II compound (Fig. 3A,D). Short-circuit current measurements in N1303K-CFTR-expressing FRT cells confirmed synergy when ASP-11 was added after VX-770 (Fig. 3Bi). […] In each experiment, CFTRinh-172 confirmed that current was from CFTR.
Figure 3 Definition of Class I and II CFTR potentiators. (A) Chemical structures of Class I and II potentiators. (B) Short-circuit current in FRT cells expressing N1303K-CFTR in response to forskolin and indicated potentiators. Concentrations: 20 μM forskolin, 5 μM VX-770, 20 μM ASP-11, 20 μM GLPG1837, 20 μM P2, 20 μM P3, 20 μM P5, 20 μM W1282Xpot-C01, and 10 μM CFTRinh-172. C. Short-circuit current in FRT cells expressing Q1313X-CFTR in response to forskolin and indicated potentiators. Concentrations: as in panel B, and 25 μM apigenin. (D) Summary of relative N1303K-CFTR activation in response to combinations of Class I and Class II potentiators. Mean ± S.E.M., n = 3. TEXT PRINTED IN THE PICTURE: (D) VX-770: N1303K-CFTR: P5: 1% ±1%; N1303K-CFTR: GLPG 1837: 10% ±5%; N1303K-CFTR: ASP-11: 100% ±3%; N1303K-CFTR: apigenin: 100% ±5% | (D) P5: N1303K-CFTR: VX-770: 1% ±1%; N1303K-CFTR: GLPG 1837: 2% ±2%; N1303K-CFTR: ASP-11: 52% ±5%; N1303K-CFTR: apigenin: 56% ±5% | (D) GLPG 1837: N1303K-CFTR: VX-770: 0% ±5%; N1303K-CFTR: P5: 2% ±2%; N1303K-CFTR: ASP-11: 100% ±4%; N1303K-CFTR: apigenin: 98% ±5% | (D) ASP-11: N1303K-CFTR: VX-770: 100% ±3%; N1303K-CFTR: P5: 47% ±4%; N1303K-CFTR: GLPG 1837: 100% ±5%; N1303K-CFTR: apigenin: 7% ±3% | (D) apigenin: N1303K-CFTR: VX-770: 100% ±5%; N1303K-CFTR: P5: 50% ±5%; N1303K-CFTR: GLPG 1837: 100% ±5%; N1303K-CFTR: ASP-11: 5% ±2% DOUBTS OF THE COPYIST ABOUT THIS PICTURE: Panel D is a matrix of pairs of substances (row substance combined with column substance). The picture prints no name for the measure, only % values and a 0%–100% colour scale. / The print in panel D is small, so 3, 5, 6 and 8 are hard to tell apart in these values. / VX-770 / GLPG 1837: ±5% could be ±3% / VX-770 / ASP-11: ±3% could be ±5% / VX-770 / apigenin: ±5% could be ±3% / P5 / ASP-11: 52% ±5%, digits uncertain / P5 / apigenin: 56% could be 58%, and ±5% is uncertain / GLPG 1837 / VX-770: 0% ±5%, error digit uncertain / GLPG 1837 / apigenin: 98% could be 96%, and ±5% is uncertain / ASP-11 / VX-770: ±3% could be ±5% / ASP-11 / GLPG 1837: ±5% could be ±3% / ASP-11 / apigenin: 7% ±3%, error digit uncertain / apigenin / VX-770: ±5% could be ±3% / apigenin / P5: 50% ±5%, digits uncertain / apigenin / GLPG 1837: ±5% could be ±3% / apigenin / ASP-11: 5% ±2%, the 5 is uncertain
as §1, §2

T1 sequence (P13569 1-1312 limits assumed): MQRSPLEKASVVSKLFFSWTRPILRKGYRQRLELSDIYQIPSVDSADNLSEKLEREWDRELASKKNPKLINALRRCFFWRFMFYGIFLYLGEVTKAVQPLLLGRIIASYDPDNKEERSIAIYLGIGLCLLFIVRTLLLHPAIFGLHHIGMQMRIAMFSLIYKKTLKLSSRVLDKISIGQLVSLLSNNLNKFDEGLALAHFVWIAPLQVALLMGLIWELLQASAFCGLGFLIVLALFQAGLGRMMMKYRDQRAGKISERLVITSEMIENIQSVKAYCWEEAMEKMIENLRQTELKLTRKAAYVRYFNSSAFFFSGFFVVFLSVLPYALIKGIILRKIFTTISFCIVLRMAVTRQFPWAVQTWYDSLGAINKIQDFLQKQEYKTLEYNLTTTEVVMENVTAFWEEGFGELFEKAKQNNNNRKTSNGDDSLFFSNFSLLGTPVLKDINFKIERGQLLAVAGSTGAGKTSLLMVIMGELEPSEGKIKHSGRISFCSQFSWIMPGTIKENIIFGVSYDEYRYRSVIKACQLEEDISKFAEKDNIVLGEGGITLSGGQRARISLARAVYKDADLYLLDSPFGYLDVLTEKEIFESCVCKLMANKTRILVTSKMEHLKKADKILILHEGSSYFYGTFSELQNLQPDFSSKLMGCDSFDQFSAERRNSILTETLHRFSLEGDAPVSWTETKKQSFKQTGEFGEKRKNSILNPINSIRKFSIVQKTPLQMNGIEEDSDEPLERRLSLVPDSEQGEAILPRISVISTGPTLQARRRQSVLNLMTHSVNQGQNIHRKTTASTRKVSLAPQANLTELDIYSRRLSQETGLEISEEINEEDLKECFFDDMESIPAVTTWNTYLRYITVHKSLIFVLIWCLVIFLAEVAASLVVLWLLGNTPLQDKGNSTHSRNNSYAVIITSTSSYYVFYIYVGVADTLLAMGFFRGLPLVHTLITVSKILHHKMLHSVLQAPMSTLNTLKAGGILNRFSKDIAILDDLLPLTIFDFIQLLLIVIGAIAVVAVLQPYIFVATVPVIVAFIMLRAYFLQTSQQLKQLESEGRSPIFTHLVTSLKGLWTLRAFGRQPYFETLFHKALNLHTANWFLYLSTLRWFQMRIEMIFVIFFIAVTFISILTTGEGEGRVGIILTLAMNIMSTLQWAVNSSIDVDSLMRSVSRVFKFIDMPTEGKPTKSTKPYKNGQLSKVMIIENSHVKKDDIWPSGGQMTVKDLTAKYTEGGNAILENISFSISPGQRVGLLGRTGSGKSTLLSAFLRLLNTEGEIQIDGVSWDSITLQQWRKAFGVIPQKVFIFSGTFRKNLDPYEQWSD

As to `CCCCn1cc(S(=O)(=O)Nc2ccc(CC)cc2)c2cccnc21` [ASP-11], the “increase in chloride current with ASP-11 plus VX-770 compared to VX-770 alone” value at Q1313X-CFTR (Q1313X-CFTR FRT cells, 20 µM forskolin, 5 µM VX-770, 20 µM ASP-11, range stated jointly for I1234del- and Q1313X-CFTR) was 3–9 fold. Also, on N1303K-CFTR (N1303K-CFTR FRT cells, 20 μM W1282Xpot-C01 and 20 μM ASP-11, no Class I potentiator), the “activation by two Class II potentiators added together” value is given as “little activation”. Moreover, at N1303K-CFTR (N1303K-CFTR FRT cells, 20 μM forskolin, 5 μM VX-770, then 20 μM compound), the “short-circuit current response when added after VX-770” value is “synergy”.

On to `COc1ccc2[nH]c3c(c2c1)CCNC31CCN(Cc2ccc(F)cc2F)CC1` [Compound A061], for which the EC50 at Q1313X-CFTR (FRT cells expressing Q1313X-CFTR, after 20 µM forskolin and 5 µM VX-770) amounted to 5 µM; at N1303K-CFTR (FRT cells expressing N1303K-CFTR, after 20 µM forskolin and 5 µM VX-770), 2.9 µM.

Turning to `CC(C)(C)c1cc(C(C)(C)C)c(NC(=O)c2c[nH]c3ccccc3c2=O)cc1O` [VX-770, ivacaftor], the “short-circuit current response when added after GLPG1837” value on Q1313X-CFTR (Q1313X-CFTR FRT cells, 20 μM forskolin, 20 μM GLPG1837) is on record as “reduced current”; on N1303K-CFTR (N1303K-CFTR FRT cells, 20 μM forskolin, 20 μM GLPG1837) it was “mildly reduced current”.

What is called EC50 is the concentration at which the effect is half-maximal.
